The source of these data is ChEMBL document CHEMBL1201862, “PubChem BioAssay data set” (2004).

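Five compound concentrations were applied to cells in 96-well plates for 48 hours; endpoints were derived by simple linear interpolation of the resulting dose-response curve. GI50 marks 50% less growth.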 Active and inactive are the calls of the source. Rule as the data show it: active = GI50 up to about 1.1 µM and inactive = higher. Where only a bound is given, the exact number is not on record here.

Among the test systems are UACC-62; NCI-H522; DU-145; HOP-92; SF-268; A498; NCI-H460; SNB-75; M14; A549; RPMI-8226; HT-29; SF-539; EKVX; UO-31; MOLT-4; HCC 2998; T47D; BT-549.
Common to all, as to assay: inhibition of tumour cell growth, NCI panel, 48 h

Turning to `C[Si](C)(C)CCOCN(C(=O)C1=CCC2(CC1)OCCO2)c1ccccc1I`, the GI50 in the assay on UACC-62 is 16.9 µM (inactive); in the assay on NCI-H522, 21.1 µM (inactive); in the assay with DU-145, 25.4 µM (inactive); in the assay on HOP-92, 0.121 µM (active); with SF-268, 21.8 µM (inactive); with A498 it was 12.4 µM (inactive). Besides, the GI50 in the assay with NCI-H460 was 20 µM (inactive); with SNB-75, 17.7 µM (inactive); with M14 it was 18.2 µM (inactive); with A549, 23.6 µM (inactive); in the assay with RPMI-8226, 11.9 µM (inactive); in the assay on HT-29, 34.3 µM (inactive). Moreover, the GI50 in the assay with SF-539 was 22.1 µM (inactive); in the assay on EKVX it was 14.8 µM (inactive); in the assay on UO-31, 19.4 µM (inactive); in the assay on MOLT-4, 10.8 µM (inactive); in the assay with HCC 2998, 21.1 µM (inactive); with T47D, 12.8 µM (inactive).
As for `O=[N+]([O-])c1ccccc1S(=O)(=O)c1cc(Cl)cc2c1NCCC2`, the GI50 in the assay with UACC-62 is 38.5 µM (inactive); with BT-549, 26.8 µM (inactive); with DU-145, 94.6 µM (inactive); in the assay with HOP-92 it was 91.2 µM (inactive); in the assay on SF-268 it was > 100 µM (inactive); with A498 it was > 100 µM (inactive). Further, the GI50 in the assay with NCI-H460 is 77.3 µM (inactive); in the assay with SNB-75 it was 43.4 µM (inactive); in the assay with M14 it was 63 µM (inactive); in the assay on A549 it was 65.8 µM (inactive); in the assay on RPMI-8226, 44.8 µM (inactive); in the assay with HT-29, 70.3 µM (inactive). Further, the GI50 in the assay with SF-539 is > 100 µM (inactive); in the assay with EKVX, > 100 µM (inactive); in the assay on UO-31 it was 50.2 µM (inactive); with MOLT-4 it was 31.8 µM (inactive); in the assay on HCC 2998 it was 20.1 µM (inactive).
As for `C(/C=N/N=C1NCCCN1)=N\N=C1NCCCN1`, the GI50 is > 100 µM (inactive) in the assay on UACC-62; > 100 µM (inactive) with BT-549; > 100 µM (inactive) in the assay on NCI-H522; 56.5 µM (inactive) in the assay with HOP-92; > 100 µM (inactive) with SF-268; > 100 µM (inactive) with NCI-H460. For the same molecule, the GI50 in the assay on SNB-75, in the assay on M14, in the assay with A549, in the assay on HT-29, in the assay with SF-539 and in the assay with EKVX was > 100 µM (inactive) throughout. For the same molecule, the GI50 with UO-31, in the assay with MOLT-4, in the assay on HCC 2998 and in the assay with T47D was > 100 µM (inactive) throughout.
For `COC(=O)CC(CNC(=O)OCc1ccccc1)OCc1ccc(OC)cc1` (centres undefined), the GI50 was > 100 µM (inactive) in the assay on UACC-62; 34 µM (inactive) in the assay with BT-549; > 100 µM (inactive) in the assay with NCI-H522; > 100 µM (inactive) in the assay with DU-145; > 100 µM (inactive) in the assay on HOP-92; > 100 µM (inactive) in the assay on A498. Moreover, the GI50 with NCI-H460, with SNB-75, with M14, in the assay with A549, in the assay with RPMI-8226 and in the assay on SF-539 was > 100 µM (inactive) in each case. The GI50 in the assay on EKVX is > 100 µM (inactive); with UO-31, 50.6 µM (inactive); in the assay with MOLT-4, > 100 µM (inactive); with HCC 2998, > 100 µM (inactive).
`NC(=O)C(c1ccccc1)N1OC2C(=O)N(c3ccccc3)C(=O)C2C1c1c2ccccc2c(Cl)c2ccccc12` (centres undefined): the GI50 with UACC-62, with BT-549, with NCI-H522, in the assay on DU-145, with HOP-92 and with SF-268 was > 100 µM (inactive) each time. Further, the GI50 in the assay with SNB-75, with M14, in the assay on A549, with RPMI-8226, with HT-29 and with SF-539 was > 100 µM (inactive) each time. The GI50 in the assay with EKVX, in the assay with UO-31, in the assay with MOLT-4 and with T47D was > 100 µM (inactive) in each case.
`Cc1cc2ccc(N)nc2nc1O`: the GI50 was > 100 µM (inactive) in the assay on UACC-62; > 100 µM (inactive) in the assay on BT-549; 49.2 µM (inactive) with NCI-H522; > 100 µM (inactive) in the assay with DU-145; > 100 µM (inactive) with HOP-92; 92.9 µM (inactive) in the assay on SF-268. In addition, the GI50 in the assay with NCI-H460, in the assay with SNB-75, in the assay with M14, in the assay on A549, in the assay on RPMI-8226 and with HT-29 was > 100 µM (inactive) throughout. Moreover, the GI50 in the assay on SF-539, with EKVX, in the assay with UO-31 and with T47D was > 100 µM (inactive) throughout.
As for `COc1ccc(N2CC(=O)N(C(=O)COc3ccc(OCC(=O)N4C(=O)CN(c5ccc(OC)cc5)C4=S)cc3)C2=S)cc1`, the GI50 with UACC-62 was 70.8 µM (inactive); with BT-549, > 100 µM (inactive); in the assay on NCI-H522, 32.6 µM (inactive); in the assay on DU-145, > 100 µM (inactive); with HOP-92, > 100 µM (inactive); in the assay with SF-268, > 100 µM (inactive). The GI50 was > 100 µM (inactive) in the assay on A498; 59.2 µM (inactive) with NCI-H460; > 100 µM (inactive) in the assay on SNB-75; > 100 µM (inactive) with M14; 46.9 µM (inactive) in the assay on A549; 87.5 µM (inactive) with RPMI-8226. Further, the GI50 with HT-29 was 57.9 µM (inactive); in the assay with EKVX it was 81.1 µM (inactive); in the assay with UO-31 it was > 100 µM (inactive); with MOLT-4, 30 µM (inactive); in the assay with HCC 2998 it was > 100 µM (inactive).
As for `SCCCSCCSCCCSCCS`, the GI50 in the assay on UACC-62, with BT-549, in the assay on NCI-H522, with DU-145, in the assay with SF-268 and in the assay with NCI-H460 was > 100 µM (inactive) throughout. Further, the GI50 is 45.6 µM (inactive) in the assay with SNB-75; 87.9 µM (inactive) in the assay on M14; > 100 µM (inactive) in the assay with A549; > 100 µM (inactive) in the assay on HT-29; > 100 µM (inactive) in the assay on SF-539; > 100 µM (inactive) with EKVX. Further, the GI50 with UO-31 was 80.9 µM (inactive); in the assay with MOLT-4, 33.2 µM (inactive); with HCC 2998 it was > 100 µM (inactive); in the assay on T47D it was > 100 µM (inactive).
With `O=S(=O)(O)c1ccc(/N=N/c2ccc(/N=N/c3c(O)ccc4ccccc34)c(S(=O)(=O)O)c2)cc1`, the GI50 in the assay with UACC-62, in the assay on BT-549, with NCI-H522, with HOP-92, in the assay with SF-268 and with NCI-H460 was > 100 µM (inactive) throughout. Also, the GI50 was 62.1 µM (inactive) in the assay with SNB-75; > 100 µM (inactive) with M14; > 100 µM (inactive) in the assay on A549; > 100 µM (inactive) with RPMI-8226; > 100 µM (inactive) in the assay on HT-29; > 100 µM (inactive) in the assay on SF-539. Besides, the GI50 with EKVX, in the assay with UO-31, with MOLT-4 and in the assay with HCC 2998 was > 100 µM (inactive) throughout.
Turning to `CC(C)c1nc2cc(C(F)(F)F)ccc2[nH]c1=O`, the GI50 with UACC-62 was 29.8 µM (inactive); in the assay with BT-549, > 100 µM (inactive); with NCI-H522 it was 39 µM (inactive); in the assay on HOP-92 it was 42.5 µM (inactive); in the assay with SF-268 it was 88.5 µM (inactive); in the assay with A498 it was 61.9 µM (inactive). Besides, the GI50 in the assay on NCI-H460 is > 100 µM (inactive); with SNB-75 it was 34.4 µM (inactive); with M14, > 100 µM (inactive); with A549 it was 53.6 µM (inactive); in the assay with RPMI-8226, > 100 µM (inactive); in the assay on HT-29, 72.1 µM (inactive). The GI50 is > 100 µM (inactive) in the assay on SF-539; 7 µM (inactive) in the assay on EKVX; > 100 µM (inactive) with UO-31; 75.3 µM (inactive) with MOLT-4; > 100 µM (inactive) with HCC 2998; > 100 µM (inactive) in the assay with T47D.
In the case of `O=C1/C(=C/c2ccccc2)CCCc2ccccc21`, the GI50 was 15.1 µM (inactive) in the assay with UACC-62; 20 µM (inactive) in the assay on BT-549; 21.1 µM (inactive) in the assay on NCI-H522; 23.2 µM (inactive) in the assay on DU-145; 15.3 µM (inactive) in the assay with HOP-92; 17.7 µM (inactive) in the assay with SF-268. For the same molecule, the GI50 is 16 µM (inactive) in the assay on NCI-H460; 35.3 µM (inactive) with SNB-75; 20.1 µM (inactive) with M14; 22.9 µM (inactive) with A549; 16.6 µM (inactive) in the assay on RPMI-8226; 17.7 µM (inactive) with HT-29. Further, the GI50 in the assay with SF-539 is 17.9 µM (inactive); in the assay with EKVX, 19.5 µM (inactive); with UO-31 it was 17.6 µM (inactive); in the assay with MOLT-4, 18.5 µM (inactive).
For the molecule `COc1cc2c(cc1OCCCCOc1cc3c(cc1OC)C(=O)N1CCC[C@H]1C(=O)N3)N=C[C@@H]1CCCN1C2=O`, the GI50 with UACC-62 is 3.35 µM (inactive); in the assay on BT-549 it was 4.44 µM (inactive); in the assay on NCI-H522, 1.12 µM (inactive); in the assay with DU-145 it was 17.2 µM (inactive); in the assay on SF-268, 3.82 µM (inactive); in the assay on A498, 6.71 µM (inactive). In addition, the GI50 in the assay on NCI-H460 was 15.8 µM (inactive); in the assay on SNB-75, 4.12 µM (inactive); with M14 it was 12.9 µM (inactive); in the assay on A549, 18.3 µM (inactive); in the assay on RPMI-8226, 1.57 µM (inactive); in the assay with HT-29 it was 16.6 µM (inactive). In addition, the GI50 in the assay with EKVX was 12.5 µM (inactive); in the assay on UO-31, 14.8 µM (inactive); in the assay with MOLT-4 it was 2.27 µM (inactive); in the assay with HCC 2998, 11.7 µM (inactive); with T47D, 5.52 µM (inactive).
